Experimental data reported in patent publication US9126999B2, “Tetrahydropyrazolopyrimidine compounds” (EISAI R&D MANAGEMENT CO., LTD., priority 2012, dated 2015).

Target: T1, Human TLR9 (Homo sapiens, UniProt Q9NR96)
T1 sequence (Q9NR96 26-1032): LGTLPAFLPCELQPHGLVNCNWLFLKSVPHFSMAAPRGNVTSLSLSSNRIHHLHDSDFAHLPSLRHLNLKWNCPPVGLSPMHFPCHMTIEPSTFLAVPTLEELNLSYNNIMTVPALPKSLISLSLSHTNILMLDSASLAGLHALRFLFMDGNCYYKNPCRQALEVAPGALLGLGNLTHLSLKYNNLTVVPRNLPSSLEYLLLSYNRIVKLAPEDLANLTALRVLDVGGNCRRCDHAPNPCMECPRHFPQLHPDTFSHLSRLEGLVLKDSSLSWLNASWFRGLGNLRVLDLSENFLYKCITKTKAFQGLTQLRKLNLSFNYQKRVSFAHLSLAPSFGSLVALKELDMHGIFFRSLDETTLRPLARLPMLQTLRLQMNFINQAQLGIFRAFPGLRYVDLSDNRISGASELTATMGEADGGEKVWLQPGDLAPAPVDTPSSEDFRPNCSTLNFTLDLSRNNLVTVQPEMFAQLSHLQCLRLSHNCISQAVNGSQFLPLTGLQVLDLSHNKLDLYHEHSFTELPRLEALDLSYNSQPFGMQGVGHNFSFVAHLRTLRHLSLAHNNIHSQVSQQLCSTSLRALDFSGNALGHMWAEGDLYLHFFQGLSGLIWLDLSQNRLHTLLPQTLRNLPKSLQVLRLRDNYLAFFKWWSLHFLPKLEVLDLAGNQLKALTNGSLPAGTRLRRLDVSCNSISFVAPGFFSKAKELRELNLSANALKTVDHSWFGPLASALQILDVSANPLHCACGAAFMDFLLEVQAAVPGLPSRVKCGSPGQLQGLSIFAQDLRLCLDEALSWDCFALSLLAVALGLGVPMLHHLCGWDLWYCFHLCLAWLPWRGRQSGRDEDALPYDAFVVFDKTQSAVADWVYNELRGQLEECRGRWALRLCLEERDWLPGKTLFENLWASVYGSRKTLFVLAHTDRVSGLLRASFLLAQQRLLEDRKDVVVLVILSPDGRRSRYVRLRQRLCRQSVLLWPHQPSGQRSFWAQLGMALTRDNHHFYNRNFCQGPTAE
Assay: HEK-293 NF-kappaB luciferase reporter assay, CpG-ODN stimulus
Assay type: cell-based
Parameters: engineered to stably and individually express human TLR4, TLR7 or TLR9 full-length ORF cDNAs; expressed in transfected cells; host or cells: HEK-293 (ATCC) with ELAM-1 NF-kappaB luciferase reporter
Conditions: ligand CpG-ODN, analyte NFkB-luciferase
Source text: In vitro pharmacology: HEK-293 cells (ATCC) were engineered to stably express a NF-kappaB transcription factor inducible E-selectin (ELAM-1) luciferase reporter derived from the plasmid pGL3 (Promega) containing base pairs −2241 bp to −254 bp from the promoter of the human E-selectin gene (Accession No. NM_000450). These cells were then subsequently engineered to stably and individually express human TLR4, TLR7 or TLR9 full-length ORF cDNAs. Human TLR4 cDNA (Accession No. NM_138554) was cloned into pcDNA 3.0 expression vector (Invitrogen). TLR4 transfected cells were also engineered to express human MD-2 co-receptor [MD-2 cDNA (Accession No. NM_015364) was cloned into the pEF-BOS vector] and were supplemented with 10 nM soluble CD14 (R&D Systems) in the media to optimize LPS responsiveness. Human TLR9 cDNA (Accession No. NM_017442) was cloned into the pBluescript II KS vector (Agilent). Human TLR7 cDNA (Accession No. NM_016562) was obtained from OriGene. HEK-293 cells stably expressing human TLR8 (Accession No. NM_138636) or mouse TLR7 (Accession No. NM_133211) were purchased from InvivoGen and were then stably transfected with pNiFty2(NF-kappaB)-luciferase reporter plasmid (InvivoGen). […]

COc1ccc([C@@H]2C[C@H](C(F)(F)F)n3nc(-c4ccc(C(=O)N5CCNCC5)cc4)cc3N2)cc1OC [ER-892887, (4-((5S,7R)-5-(3,4-dimethoxyphenyl)-7-(trifluoromethyl)-4,5,6,7-tetrahydropyrazolo[1,5-a]pyrimidin-2-yl)phenyl)(piperazin-1-yl)methanone]
IC50: > 10 µM
